Laboratory results from PubChem BioAssay (NCI).
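Assay format: 96-well plates, 48-hour exposure. GI50 marks 50% less growth. TGI: concentration producing complete growth inhibition.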

How the values were obtained:
Assay in all cases: NCI tumour cell line growth inhibition, 48 h; in the data active = GI50 below about 0.43 µM; inactive = the rest
UACC-62 melanoma = system: UACC-62 melanoma
COLO 205 colon = system: COLO 205 colon
SK-OV-3 ovarian = system: SK-OV-3 ovarian
HCC-2998 colon = system: HCC-2998 colon
T-47D breast = system: T-47D breast
SK-MEL-5 melanoma = system: SK-MEL-5 melanoma
HT29 colon = system: HT29 colon
MCF7 breast = system: MCF7 breast
IGROV1 ovarian = system: IGROV1 ovarian
CCRF-CEM leukemia = system: CCRF-CEM leukemia
HOP-92 NSCLC = system: HOP-92 NSCLC
NCI-H226 lung = system: NCI-H226 lung
HCT-15 colon = system: HCT-15 colon
OVCAR-3 ovarian = system: OVCAR-3 ovarian
K-562 leukemia = system: K-562 leukemia
A549 NSCLC = system: A549 NSCLC
SF-268 CNS = system: SF-268 CNS
HOP-62 NSCLC = system: HOP-62 NSCLC
A498 renal = system: A498 renal
LOX IMVI melanoma = system: LOX IMVI melanoma
U251 CNS = system: U251 CNS
786-0 renal = system: 786-0 renal
MDA-MB-435 = system: MDA-MB-435
SF-539 CNS = system: SF-539 CNS
KM12 colon = system: KM12 colon
UO-31 renal = system: UO-31 renal
SNB-19 CNS = system: SNB-19 CNS
NCI-H23 lung = system: NCI-H23 lung
SK-MEL-28 melanoma = system: SK-MEL-28 melanoma
MOLT-4 leukemia = system: MOLT-4 leukemia
ACHN renal = system: ACHN renal
SNB-75 CNS = system: SNB-75 CNS
NCI/ADR-RES ovarian = system: NCI/ADR-RES ovarian
CAKI-1 renal = system: CAKI-1 renal
OVCAR-5 ovarian = system: OVCAR-5 ovarian
EKVX NSCLC = system: EKVX NSCLC
NCI-H522 lung = system: NCI-H522 lung
SF-295 CNS = system: SF-295 CNS
SK-MEL-2 melanoma = system: SK-MEL-2 melanoma
DU-145 prostate = system: DU-145 prostate
UACC-257 melanoma = system: UACC-257 melanoma
BT-549 breast = system: BT-549 breast
SW-620 colon = system: SW-620 colon
RXF 393 renal = system: RXF 393 renal
M14 melanoma = system: M14 melanoma
HL-60(TB) leukemia = system: HL-60(TB) leukemia
HCT-116 colon = system: HCT-116 colon
SN12C renal = system: SN12C renal
MDA-MB-231 breast = system: MDA-MB-231 breast
MDA-N = system: MDA-N
NCI-H460 lung = system: NCI-H460 lung
OVCAR-8 ovarian = system: OVCAR-8 ovarian
OVCAR-4 ovarian = system: OVCAR-4 ovarian
HS 578T breast = system: HS 578T breast
TK-10 renal = system: TK-10 renal
MALME-3M melanoma = system: MALME-3M melanoma
SR leukemia = system: SR leukemia
PC-3 prostate = system: PC-3 prostate
RPMI-8226 leukemia = system: RPMI-8226 leukemia

CCOP(=O)(OCC)C(C)(CC)NC (stereo unspecified)
> 100 µM: TGI (UACC-62 melanoma) | TGI (COLO 205 colon) | TGI (SK-OV-3 ovarian) | TGI (HCC-2998 colon) | TGI (T-47D breast) | TGI (SK-MEL-5 melanoma) | TGI (HT29 colon) | TGI (MCF7 breast) | TGI (IGROV1 ovarian) | TGI (HOP-92 NSCLC) | TGI (NCI-H226 lung) | TGI (HCT-15 colon) | TGI (OVCAR-3 ovarian) | TGI (K-562 leukemia) | TGI (A549 NSCLC) | TGI (SF-268 CNS) | TGI (HOP-62 NSCLC) | TGI (A498 renal) | TGI (LOX IMVI melanoma) | TGI (U251 CNS) | TGI (786-0 renal) | TGI (MDA-MB-435) | TGI (SF-539 CNS) | TGI (KM12 colon) | TGI (UO-31 renal) | TGI (SNB-19 CNS) | TGI (NCI-H23 lung) | TGI (SK-MEL-28 melanoma) | TGI (MOLT-4 leukemia) | TGI (ACHN renal) | TGI (SNB-75 CNS) | TGI (NCI/ADR-RES ovarian) | TGI (CAKI-1 renal) | TGI (OVCAR-5 ovarian) | TGI (EKVX NSCLC) | TGI (NCI-H522 lung) | TGI (SF-295 CNS) | TGI (SK-MEL-2 melanoma) | TGI (DU-145 prostate) | TGI (UACC-257 melanoma) | TGI (BT-549 breast) | TGI (SW-620 colon) | TGI (RXF 393 renal) | TGI (M14 melanoma) | TGI (HL-60(TB) leukemia) | TGI (HCT-116 colon) | TGI (SN12C renal) | TGI (MDA-MB-231 breast) | TGI (MDA-N) | TGI (NCI-H460 lung) | TGI (OVCAR-8 ovarian) | TGI (OVCAR-4 ovarian) | TGI (HS 578T breast) | TGI (TK-10 renal) | TGI (MALME-3M melanoma)
77.1 µM: TGI (CCRF-CEM leukemia)

CCn1c2ccccc2c2cc(/C=C(/C#N)C(N)=O)ccc21
> 84.7 µM: TGI (RPMI-8226 leukemia)
54.2 µM: TGI (SK-MEL-5 melanoma)
44.7 µM: TGI (BT-549 breast)
30 µM: TGI (SF-295 CNS)
44.1 µM: TGI (SNB-75 CNS)
3.95 µM: TGI (OVCAR-5 ovarian)
inactive: GI50 (UACC-62 melanoma) 1.91 µM | GI50 (COLO 205 colon) 4.65 µM | GI50 (SK-OV-3 ovarian) 21.8 µM | GI50 (HCC-2998 colon) 4.22 µM | GI50 (T-47D breast) 3.33 µM | GI50 (SK-MEL-5 melanoma) 8.5 µM | GI50 (HT29 colon) 5.18 µM | GI50 (MCF7 breast) 0.857 µM | GI50 (IGROV1 ovarian) 2.87 µM | GI50 (CCRF-CEM leukemia) 13.2 µM | GI50 (SR leukemia) 3.54 µM | GI50 (HOP-92 NSCLC) 16.9 µM | GI50 (HCT-15 colon) 14.8 µM | GI50 (OVCAR-3 ovarian) 3.43 µM | GI50 (K-562 leukemia) 4.49 µM | GI50 (A549 NSCLC) 20.3 µM | GI50 (SF-268 CNS) 19.9 µM | GI50 (HOP-62 NSCLC) 4.81 µM | GI50 (LOX IMVI melanoma) 14.4 µM | GI50 (U251 CNS) 5.45 µM | GI50 (786-0 renal) 10.6 µM | GI50 (MDA-MB-435) 2.53 µM | GI50 (KM12 colon) 13.5 µM | GI50 (UO-31 renal) 11.7 µM | GI50 (SNB-19 CNS) 10.2 µM | GI50 (NCI-H23 lung) 16.3 µM | GI50 (SK-MEL-28 melanoma) 40.1 µM | GI50 (MOLT-4 leukemia) 6.66 µM | GI50 (ACHN renal) > 76 µM | GI50 (SNB-75 CNS) 16.1 µM | GI50 (NCI/ADR-RES ovarian) 11.2 µM | GI50 (CAKI-1 renal) 5.53 µM | GI50 (OVCAR-5 ovarian) 0.668 µM | GI50 (EKVX NSCLC) 3.57 µM | GI50 (NCI-H522 lung) 11.7 µM | GI50 (SF-295 CNS) 3.42 µM | GI50 (SK-MEL-2 melanoma) 11.4 µM | GI50 (PC-3 prostate) 21.6 µM | GI50 (DU-145 prostate) 13.8 µM | GI50 (UACC-257 melanoma) 4.18 µM | GI50 (BT-549 breast) 0.938 µM | GI50 (SW-620 colon) 4.86 µM | GI50 (RXF 393 renal) 2.57 µM | GI50 (M14 melanoma) 13.4 µM | GI50 (HL-60(TB) leukemia) 4.76 µM | GI50 (HCT-116 colon) 3.71 µM | GI50 (SN12C renal) 43.6 µM | GI50 (RPMI-8226 leukemia) 7.94 µM | GI50 (MDA-MB-231 breast) 21 µM | GI50 (NCI-H460 lung) 1.67 µM | GI50 (OVCAR-8 ovarian) 42.6 µM | GI50 (OVCAR-4 ovarian) 6.54 µM | GI50 (HS 578T breast) 5.69 µM | GI50 (TK-10 renal) 2.31 µM | GI50 (MALME-3M melanoma) > 75.2 µM
13.3 µM: TGI (NCI-H460 lung)
> 100 µM: TGI (COLO 205 colon) | TGI (T-47D breast) | TGI (HT29 colon) | TGI (CCRF-CEM leukemia) | TGI (SR leukemia) | TGI (HCT-15 colon) | TGI (K-562 leukemia) | TGI (A549 NSCLC) | TGI (SF-268 CNS) | TGI (LOX IMVI melanoma) | TGI (U251 CNS) | TGI (786-0 renal) | TGI (KM12 colon) | TGI (NCI-H23 lung) | TGI (SK-MEL-28 melanoma) | TGI (MOLT-4 leukemia) | TGI (ACHN renal) | TGI (NCI-H522 lung) | TGI (PC-3 prostate) | TGI (DU-145 prostate) | TGI (SW-620 colon) | TGI (SN12C renal) | TGI (MDA-MB-231 breast) | TGI (OVCAR-8 ovarian) | TGI (OVCAR-4 ovarian) | TGI (MALME-3M melanoma)
active: GI50 (NCI-H226 lung) 0.209 µM | GI50 (A498 renal) 0.188 µM
> 28.8 µM: TGI (TK-10 renal)
19.1 µM: TGI (OVCAR-3 ovarian)
25.3 µM: TGI (HCC-2998 colon)
0.559 µM: TGI (A498 renal)
39.7 µM: TGI (HS 578T breast)
18.4 µM: TGI (MDA-MB-435)
19.3 µM: TGI (RXF 393 renal)
88.1 µM: TGI (NCI/ADR-RES ovarian)
> 83.6 µM: TGI (M14 melanoma)
> 91.4 µM: TGI (HOP-92 NSCLC)
> 87.8 µM: TGI (SNB-19 CNS)
> 78.1 µM: TGI (SK-OV-3 ovarian)
15.8 µM: TGI (UACC-257 melanoma)
7.65 µM: TGI (UACC-62 melanoma)
6.61 µM: TGI (SF-539 CNS)
> 51.9 µM: TGI (IGROV1 ovarian)
> 60.4 µM: TGI (SK-MEL-2 melanoma)
1.13 µM: TGI (NCI-H226 lung)
> 47.3 µM: TGI (MCF7 breast)
41.8 µM: TGI (HOP-62 NSCLC)
> 48.7 µM: TGI (EKVX NSCLC)
> 77.9 µM: TGI (CAKI-1 renal)
> 52.4 µM: TGI (HCT-116 colon)
> 29.6 µM: TGI (UO-31 renal)
> 67.3 µM: TGI (HL-60(TB) leukemia)
